Each block holds one compound with its values, some of them ahead of it.
Tests used:
MCF7 = test: Antiproliferative activity in human MCF7 cells assessed as cell growth inhibition measured after 24 hrs by MTT assay; format: functional, cell-based; conditions: MCF7, 24 h
[1] = target: T1, Mitogen-activated protein kinase 1 (Homo sapiens, UniProt P28482); test: Binding affinity to ERK2 (unknown origin)
[2] = target: T1, Mitogen-activated protein kinase 1; test: Inhibition of ERK2 (unknown origin)
[3] = Antitumor activity against patient-derived Pancreatic cancer cell xenografted in NMRI nu/nu mouse PAXF-2059 model assessed as cell growth inhibition; format: functional, cell-based; conditions: Homo sapiens
[4] = Antitumor activity against patient-derived Colorectal cancer cell xenografted in NMRI nu/nu mouse CXF-243 model assessed as cell growth inhibition; format: functional, cell-based; conditions: Homo sapiens
Lung cancer cell line = test: Antitumor activity against patient-derived Lung cancer cell line xenografted in NMRI nu/nu mouse LXFA-983 model assessed as cell growth inhibition; format: functional, cell-based; conditions: Homo sapiens
[5] = target: T2, Mitogen-activated protein kinase 3 (Homo sapiens, UniProt P27361); test: Inhibition of ERK1 (unknown origin)
T2 sequence (P27361 whole entry): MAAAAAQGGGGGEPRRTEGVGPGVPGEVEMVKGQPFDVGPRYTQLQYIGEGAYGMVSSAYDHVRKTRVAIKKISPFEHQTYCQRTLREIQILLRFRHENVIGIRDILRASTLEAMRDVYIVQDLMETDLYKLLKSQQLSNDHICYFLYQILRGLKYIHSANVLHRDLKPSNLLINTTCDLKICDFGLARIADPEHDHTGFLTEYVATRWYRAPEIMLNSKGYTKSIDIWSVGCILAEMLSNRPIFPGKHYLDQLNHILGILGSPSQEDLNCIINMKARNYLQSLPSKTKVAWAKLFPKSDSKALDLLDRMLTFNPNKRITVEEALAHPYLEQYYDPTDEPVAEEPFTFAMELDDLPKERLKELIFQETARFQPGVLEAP

UMUC3 = test: Antiproliferative activity in human UMUC3 cells assessed as cell growth inhibition; format: functional, cell-based
[6] = Antiproliferative activity in mouse MB49 cells assessed as cell growth inhibition; format: functional, cell-based
[7] = target: T2, Mitogen-activated protein kinase 3; test: Binding affinity to ERK1 (unknown origin) measured after 20 mins in presence of [gamma33P]ATP by scintillation counter analysis
[8] = target: T2, Mitogen-activated protein kinase 3; test: Binding affinity to ERK1 (unknown origin)
[9] = target: Mitogen-activated protein kinase 1 (Rattus norvegicus, UniProt P63086); test: Binding affinity to rat full-length ERK2 using FQRKTLQRRNLKGLNLNL-XXX-TGPLSPGPF peptide as substrate in presence of [gamma33P]ATP by scintillation counter analysis
Sequence of Mitogen-activated protein kinase 1 (Rattus norvegicus, UniProt P63086) (P63086 whole entry): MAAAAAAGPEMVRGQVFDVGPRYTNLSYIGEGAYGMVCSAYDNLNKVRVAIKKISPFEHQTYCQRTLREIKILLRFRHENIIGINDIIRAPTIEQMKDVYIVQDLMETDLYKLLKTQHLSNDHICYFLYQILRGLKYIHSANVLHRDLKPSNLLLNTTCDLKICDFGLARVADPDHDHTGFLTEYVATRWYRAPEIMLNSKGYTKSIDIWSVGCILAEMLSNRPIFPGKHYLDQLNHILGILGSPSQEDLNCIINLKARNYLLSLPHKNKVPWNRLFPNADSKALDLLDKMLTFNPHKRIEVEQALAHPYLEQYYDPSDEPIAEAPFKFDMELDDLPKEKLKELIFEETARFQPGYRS

T1 sequence (P28482 whole entry): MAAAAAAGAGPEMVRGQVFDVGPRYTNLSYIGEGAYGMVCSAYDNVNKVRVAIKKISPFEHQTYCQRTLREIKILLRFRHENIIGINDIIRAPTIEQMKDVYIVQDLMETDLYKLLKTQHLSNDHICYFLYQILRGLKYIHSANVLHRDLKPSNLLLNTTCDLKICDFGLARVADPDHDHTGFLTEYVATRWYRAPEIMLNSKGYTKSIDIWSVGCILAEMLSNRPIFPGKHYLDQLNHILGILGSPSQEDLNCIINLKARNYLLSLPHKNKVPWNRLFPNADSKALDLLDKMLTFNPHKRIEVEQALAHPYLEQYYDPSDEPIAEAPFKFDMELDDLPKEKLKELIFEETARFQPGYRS

IC50 (MCF7): 5000 nM
Structure (SMILES): Clc1cc(Cl)cc(C(Cn2ccnc2)OCc2nc3ccccc3s2)c1 (stereo unspecified)

Kd [1]: 380 nM
IC50 [2]: 9900 nM
Structure (SMILES): N=C(N)NCCC[C@H]1CNC(=N)N1CCN(CCN1C[C@H](CCCNC(=N)N)N(CCCC2CCCCC2)C1=N)CCN1C[C@H](CCCNC(=N)N)N(CCc2cccc(Br)c2)C1=N

IC50 (Lung cancer cell line): 800 nM
IC50 [5]: 10 nM
IC50 [2]: 10 nM
Structure (SMILES): C=CC(=O)Nc1cc(C)ccc1Nc1nc(Nc2cc(OC)ncc2C)ncc1C(F)(F)F
IC50 [3]: 621 nM
IC50 [4]: 586 nM

IC50 [2]: 500 nM
Structure (SMILES): COc1ccc2[nH]cc(/C=C3\C(=O)Nc4ccc(NC(=O)CCN5CCCCC5)cc43)c2c1

Structure (SMILES): N=C(N)NC(=N)NCCc1ccccc1 [PHENFORMIN]
IC50 (UMUC3): 250000 nM
IC50 [6]: 570000 nM

IC50 [5]: 2 nM
IC50 [2]: 2 nM
Structure (SMILES): Cc1cnc(NC2CCOCC2)nc1-n1cnc(C(=O)N[C@H](CN)c2cc(F)cc(Cl)c2)c1 [ASN007]

Ki [7]: < 0.3 nM
Structure (SMILES): CC(C)Nc1cc(-c2c[nH]c(C(=O)N[C@H](CO)c3cccc(Cl)c3)c2)c(Cl)cn1 [ULIXERTINIB]

Ki [8]: 0.65 nM
Ki [1]: 0.064 nM
IC50 [5]: 5 nM
IC50 [2]: 5 nM
Structure (SMILES): Cn1nccc1Nc1nccc(-c2cc3c(s2)C(C)(C)N(CCN2CCOCC2)C3=O)n1 [TEMUTERKIB]

IC50 [5]: 10 nM
IC50 [2]: 10 nM
Structure (SMILES): O=C1Nc2cc3[nH]nc(-c4ccncc4)c3cc2CN1Cc1ccccc1 [KO-947]

Ki [9]: 2300 nM
Structure (SMILES): O=[N+]([O-])c1cnc(Sc2nnc(O)n2-c2ccc3c(c2)OCCO3)s1
